According to ChEMBL document CHEMBL3272040, “3-Cyanocephems, and carbon-3 heterocyclic-substituted cephems via 1,3-dipolar cycloadditions” (1976):
In brackets after ≈: the same amount, converted by molar mass.

How the values were obtained:
Streptococcus pyogenes = experiment: Antimicrobial activity against Streptococcus pyogenes MB-3124; format: functional
Staphylococcus aureus = experiment: Antimicrobial activity against Staphylococcus aureus MB-2865; format: functional

Row | SMILES | MIC (Streptococcus pyogenes) [µg/mL] | MIC (Staphylococcus aureus) [µg/mL]
1 | O=CC1=C(C(=O)OC(c2ccccc2)c2ccccc2)N2C(=O)[C@@H](NC(=O)Cc3cccs3)[C@H]2SC1 | < 0.39 | –
2 | O=C(Cc1cccs1)N[C@@H]1C(=O)N2C(C(=O)OC(c3ccccc3)c3ccccc3)=C(/C=N/O)CS[C@H]12 | < 0.39 | –
3 | O=C(Cc1cccs1)N[C@@H]1C(=O)N2C(C(=O)O)=C(/C=N/O)CS[C@H]12 | < 0.39 | < 0.39
4 | COC(=O)C1=C(/C=N/O)CS[C@@H]2[C@H](NC(=O)Cc3cccs3)C(=O)N12 | < 0.39 | –
5 | O=C(O)CO/N=C/C1=C(C(=O)OC(c2ccccc2)c2ccccc2)N2C(=O)[C@@H](NC(=O)Cc3cccs3)[C@H]2SC1 | < 0.39 | –
6 | COC(=O)CO/N=C/C1=C(C(=O)OC(c2ccccc2)c2ccccc2)N2C(=O)[C@@H](NC(=O)Cc3cccs3)[C@H]2SC1 | < 0.39 | –
7 | COC(=O)CO/N=C/C1=C(C(=O)O)N2C(=O)[C@@H](NC(=O)Cc3cccs3)[C@H]2SC1 | < 0.39 | 12.5 (≈ 28.4 µM)
8 | COC(=O)CO/N=C/C1=C(C(=O)OC)N2C(=O)[C@@H](NC(=O)Cc3cccs3)[C@H]2SC1 | < 0.39 | –
9 | CO/N=C/C1=C(C(=O)OC(c2ccccc2)c2ccccc2)N2C(=O)[C@@H](NC(=O)Cc3cccs3)[C@H]2SC1 | < 0.39 | –
10 | O=C(Cc1cccs1)N[C@@H]1C(=O)N2C(C(=O)OC(c3ccccc3)c3ccccc3)=C(/C=N/OCc3ccccc3)CS[C@H]12 | < 0.39 | –
11 | N#CC1=C(C(=O)OC(c2ccccc2)c2ccccc2)N2C(=O)[C@@H](NC(=O)Cc3cccs3)[C@H]2SC1 | < 0.39 | –
12 | N#CC1=C(C(=O)O)N2C(=O)[C@@H](NC(=O)Cc3cccs3)[C@H]2SC1 | < 0.39 | 0.78 (≈ 2.23 µM)
13 | Cc1ccc(S(=O)(=O)N/N=C/C2=C(C(=O)OC(c3ccccc3)c3ccccc3)N3C(=O)[C@@H](NC(=O)Cc4cccs4)[C@H]3SC2)cc1 | < 0.39 | –
14 | Cc1ccc(S(=O)(=O)N(C)/N=C/C2=C(C(=O)OC(c3ccccc3)c3ccccc3)N3C(=O)[C@@H](NC(=O)Cc4cccs4)[C@H]3SC2)cc1 | < 0.39 | –
15 | Cc1ccc(S(=O)(=O)N(C)/N=C/C2=C(C(=O)O)N3C(=O)[C@@H](NC(=O)Cc4cccs4)[C@H]3SC2)cc1 | < 0.39 | < 0.39
16 | COC(=O)C1=C(/C=N/N(C)S(=O)(=O)c2ccc(C)cc2)CS[C@@H]2[C@H](NC(=O)Cc3cccs3)C(=O)N12 | < 0.39 | –
17 | O=C(Cc1cccs1)N[C@@H]1C(=O)N2C(C(=O)OC(c3ccccc3)c3ccccc3)=C(/C=N/Nc3ccc([N+](=O)[O-])cc3)CS[C@H]12 | < 0.39 | –

Row | SMILES | MIC (Streptococcus pyogenes) [µg/mL] | MIC (Staphylococcus aureus) [µg/mL]
18 | O=C(Cc1cccs1)N[C@@H]1C(=O)N2C(C(=O)OC(c3ccccc3)c3ccccc3)=C(/C=N/NC(=O)c3ccccc3)CS[C@H]12 | < 0.39 | –
19 | CC(=O)N/N=C/C1=C(C(=O)OC(c2ccccc2)c2ccccc2)N2C(=O)[C@@H](NC(=O)Cc3cccs3)[C@H]2SC1 | < 0.39 | –
20 | CCOC(=O)N/N=C/C1=C(C(=O)OC(c2ccccc2)c2ccccc2)N2C(=O)[C@@H](NC(=O)Cc3cccs3)[C@H]2SC1 | < 0.39 | –
21 | Cc1ccc(S(=O)(=O)[N-]/N=C/C2=C(C(=O)OC(c3ccccc3)c3ccccc3)N3C(=O)[C@@H](NC(=O)Cc4cccs4)[C@H]3SC2)cc1.[Li+] | < 0.39 | –
22 | [N-]=[N+]=CC1=C(C(=O)OC(c2ccccc2)c2ccccc2)N2C(=O)[C@@H](NC(=O)Cc3cccs3)[C@H]2SC1 | < 0.39 | –
23 | COC(=O)c1cc(C2=C(C(=O)OC(c3ccccc3)c3ccccc3)N3C(=O)[C@@H](NC(=O)Cc4cccs4)[C@H]3SC2)n[nH]1 | < 0.39 | –
24 | COC(=O)c1cc(C2=C(C(=O)O)N3C(=O)[C@@H](NC(=O)Cc4cccs4)[C@H]3SC2)n[nH]1 | < 0.39 | 3.12 (≈ 6.96 µM)
25 | COC(=O)C1=C(c2cc(C(=O)OC)n(C)n2)CS[C@@H]2[C@H](NC(=O)Cc3cccs3)C(=O)N12 | < 0.39 | –
26 | COC(=O)c1cc(C2=C(C(=O)OC(c3ccccc3)c3ccccc3)N3C(=O)[C@@H](NC(=O)Cc4cccs4)[C@H]3SC2)nn1C | < 0.39 | –
27 | COC(=O)c1cc(C2=C(C(=O)O)N3C(=O)[C@@H](NC(=O)Cc4cccs4)[C@H]3SC2)nn1C | < 0.39 | 0.78 (≈ 1.69 µM)
28 | CCOC(=O)C1CC(C2=C(C(=O)OC(c3ccccc3)c3ccccc3)N3C(=O)[C@@H](NC(=O)Cc4cccs4)[C@H]3SC2)=NN1 (stereo partly specified) | < 0.39 | –
29 | COC(=O)c1[nH]nc(C2=C(C(=O)OC(c3ccccc3)c3ccccc3)N3C(=O)[C@@H](NC(=O)Cc4cccs4)[C@H]3SC2)c1C(=O)OC | < 0.39 | –
30 | O=C(Cc1cccs1)N[C@@H]1C(=O)N2C(C(=O)OC(c3ccccc3)c3ccccc3)=C(c3nn[nH]c3C(F)(F)F)CS[C@H]12 | < 0.39 | –
31 | O=C(Cc1cccs1)N[C@@H]1C(=O)N2C(C(=O)OC(c3ccccc3)c3ccccc3)=C(C#[N+][O-])CS[C@H]12 | < 0.39 | –
32 | O=C(Cc1cccs1)N[C@@H]1C(=O)N2C(C(=O)OC(c3ccccc3)c3ccccc3)=C(c3cc(-c4ccccc4)on3)CS[C@H]12 | < 0.39 | –
33 | O=C(Cc1cccs1)N[C@@H]1C(=O)N2C(C(=O)O)=C(c3cc(-c4ccccc4)on3)CS[C@H]12 | < 0.39 | < 0.39
34 | COC(=O)C1=C(c2cc(-c3ccccc3)on2)CS[C@@H]2[C@H](NC(=O)Cc3cccs3)C(=O)N12 | < 0.39 | –
